Experimental findings from ChEMBL document CHEMBL1201862, “PubChem BioAssay data set” (2004) are described below.

Active and inactive are the calls of the source.

The target in one assay is Large T antigen (Simian virus 40, UniProt P03070). It is filed as functional, Betapolyomavirus macacae.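 Also: Confirmatory-stage PubChem screen for compounds that inhibit SV40 T antigen.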
The target of assay [1] is T1, Tyrosine-protein phosphatase non-receptor type 7 (Homo sapiens, UniProt P35236).
T1 sequence (P35236 whole entry): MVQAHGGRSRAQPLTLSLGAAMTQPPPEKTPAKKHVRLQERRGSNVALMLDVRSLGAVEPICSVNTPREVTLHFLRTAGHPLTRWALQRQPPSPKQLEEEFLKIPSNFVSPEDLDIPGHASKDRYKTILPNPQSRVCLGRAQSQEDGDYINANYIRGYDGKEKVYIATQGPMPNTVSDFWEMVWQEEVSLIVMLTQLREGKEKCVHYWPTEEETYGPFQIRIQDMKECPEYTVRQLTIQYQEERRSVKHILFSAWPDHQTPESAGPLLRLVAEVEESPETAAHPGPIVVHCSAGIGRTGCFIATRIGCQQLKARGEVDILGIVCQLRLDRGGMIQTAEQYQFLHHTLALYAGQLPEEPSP
Format: functional.

Assay [2] addresses T2, Tyrosine-protein phosphatase non-receptor type 22 (Homo sapiens, UniProt Q9Y2R2).
T2 sequence (Q9Y2R2 whole entry): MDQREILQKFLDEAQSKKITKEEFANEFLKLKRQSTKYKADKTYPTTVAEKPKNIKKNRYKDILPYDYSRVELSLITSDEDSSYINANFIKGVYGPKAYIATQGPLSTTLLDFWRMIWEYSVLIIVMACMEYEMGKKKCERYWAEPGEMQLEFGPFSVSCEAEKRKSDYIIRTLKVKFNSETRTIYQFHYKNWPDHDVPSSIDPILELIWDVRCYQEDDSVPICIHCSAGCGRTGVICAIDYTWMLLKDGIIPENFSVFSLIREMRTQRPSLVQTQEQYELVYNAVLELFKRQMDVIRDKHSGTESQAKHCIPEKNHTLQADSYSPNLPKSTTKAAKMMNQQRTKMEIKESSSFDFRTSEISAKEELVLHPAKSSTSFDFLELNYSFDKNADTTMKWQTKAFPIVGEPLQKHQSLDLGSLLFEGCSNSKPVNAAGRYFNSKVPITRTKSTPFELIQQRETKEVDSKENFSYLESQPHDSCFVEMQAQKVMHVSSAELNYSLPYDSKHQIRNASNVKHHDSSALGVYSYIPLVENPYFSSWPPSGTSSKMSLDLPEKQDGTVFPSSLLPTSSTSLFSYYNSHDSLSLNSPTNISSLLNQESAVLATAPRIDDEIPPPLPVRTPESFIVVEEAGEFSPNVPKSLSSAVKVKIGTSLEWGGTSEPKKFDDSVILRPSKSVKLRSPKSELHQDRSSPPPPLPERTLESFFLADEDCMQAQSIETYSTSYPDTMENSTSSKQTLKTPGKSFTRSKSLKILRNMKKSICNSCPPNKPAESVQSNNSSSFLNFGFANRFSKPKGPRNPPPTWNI
It is filed as functional.

Assay [3] concerns the target T2, Tyrosine-protein phosphatase non-receptor type 22. Format: functional. The source holds these as a separate data set.
For assay [4], the target named is T3, E3 ubiquitin-protein ligase XIAP (Homo sapiens, UniProt P98170). Briefly: XIAP antagonists, biochemical, IAP family, fluorescence polarization (AID 1018). It is filed as functional. (In general: In fluorescence polarisation assays a small probe gives low polarisation when free and higher when bound to something large.)
Assay [5] has as its target T3, E3 ubiquitin-protein ligase XIAP. As to the kind of experiment: Counter Screen using XIAP-Bir3 for Chemical Antagonists of Bir1/2 domains of IAP-family anti-apoptotic proteins. [Related pubchem assays (depositor defined):AID1018, AID1449, AID1514, AID1638, AID1749, AID1750, AID488957, AID488963]. Background: Counterscreens check selectivity or assay interference.
The next assay concerns Streptococcus. As to the kind of experiment: Group A Streptococcus viability loss, dose response, counter-screen for streptokinase expression inhibitor project, luminescence, BacTiterGlo (AID 1915).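 Also: potency for reduction of bacterial viability or growth.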 Format: functional, organism-based.
The next assay deals with T4, Streptokinase A (Streptococcus pyogenes serotype M1, UniProt P10520).
T4 sequence (P10520 whole entry): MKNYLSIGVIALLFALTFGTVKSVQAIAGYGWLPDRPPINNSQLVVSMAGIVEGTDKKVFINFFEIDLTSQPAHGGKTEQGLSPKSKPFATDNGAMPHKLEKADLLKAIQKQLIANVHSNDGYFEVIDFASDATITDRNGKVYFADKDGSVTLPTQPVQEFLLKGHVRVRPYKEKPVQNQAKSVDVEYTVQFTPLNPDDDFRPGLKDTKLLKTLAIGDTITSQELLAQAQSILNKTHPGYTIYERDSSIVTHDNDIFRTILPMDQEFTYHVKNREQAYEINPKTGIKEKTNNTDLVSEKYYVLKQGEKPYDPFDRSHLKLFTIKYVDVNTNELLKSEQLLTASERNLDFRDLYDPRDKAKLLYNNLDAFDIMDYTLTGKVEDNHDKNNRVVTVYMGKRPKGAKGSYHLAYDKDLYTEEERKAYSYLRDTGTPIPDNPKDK
Briefly: S. pyogenes streptokinase expression inhibitors, potency, dose response, plasminogen activation absorbance, OD405 (AID 1914).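 Also: secreted streptokinase activity via plasminogen activation per viability signal from cell pellet.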 It is filed as functional, Streptococcus pyogenes M1 GAS.

Assay [6] has as its target T5, Carboxy-terminal domain RNA polymerase II polypeptide A small phosphatase 1 (Homo sapiens, UniProt Q9GZU7).
T5 sequence (Q9GZU7 whole entry): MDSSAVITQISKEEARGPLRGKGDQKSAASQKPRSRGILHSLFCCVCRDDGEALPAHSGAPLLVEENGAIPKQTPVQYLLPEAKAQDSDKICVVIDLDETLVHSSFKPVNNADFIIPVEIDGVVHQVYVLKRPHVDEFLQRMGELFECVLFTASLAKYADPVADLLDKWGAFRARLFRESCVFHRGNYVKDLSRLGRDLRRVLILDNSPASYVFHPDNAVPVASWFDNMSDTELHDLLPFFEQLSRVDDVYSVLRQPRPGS
As to the kind of experiment: inhibitors of CTDSP1, concentration-response testing, biochemical assay, absorbance-based, actives from ultra-high-throughput screening (AID 540297). It is filed as functional.

In assay [7] the test system is Streptococcus sp. 'group A'. As to the kind of experiment: growth inhibition of control SK(-) GAS strain, dose response, counter-screen for streptokinase expression inhibitor project, luminescence, kanamycin, BacTiterGlo, confirmation (AID 1900). It is filed as functional, organism-based.
The target in assay [8] is T2, Tyrosine-protein phosphatase non-receptor type 22. Briefly: SAR LYP1 Fluorescent Assay using OMFP substrate for In Vitro dose response studies - Set 2. [Related pubchem assays (depositor defined):AID1779, AID1784, AID2140, AID449726, AID488869]. Format: functional.
Assay [9] deals with T1, Tyrosine-protein phosphatase non-receptor type 7. As to the kind of experiment: HePTP (PTPN7) phosphatase inhibitor potency, SAR follow-up, biochemical, set 2 (AID 449736). It is filed as functional.
The target in assay [10] is T2, Tyrosine-protein phosphatase non-receptor type 22. As to the kind of experiment: LYP (PTPN22) phosphatase inhibitor potency, SAR follow-up, biochemical, pCAP fluorogenic substrate, fluorescence, set 3 (AID 449727). It is filed as functional.
The target in assay [11] is Tyrosine-protein phosphatase non-receptor type 12 (Homo sapiens, UniProt Q05209). As to the kind of experiment: SAR Selectivity Analysis of small molecule inhibitors of PEST using pCAP in a fluorescence assay. [Related pubchem assays (depositor defined):AID1779, AID1784, AID2135]. It is filed as functional.
Assay [12] addresses T2, Tyrosine-protein phosphatase non-receptor type 22. As to the kind of experiment: SAR LYP1 Fluorescent Assay using OMFP substrate for In Vitro dose response studies - Set 3. [Related pubchem assays (depositor defined):AID1779, AID1784, AID2140, AID2686]. Format: functional.
Assay [13] has the same target. As to the kind of experiment: SAR LYP1 Fluorescent Assay using pCAP substrate for In Vitro dose response studies - Set 2. [Related pubchem assays (depositor defined):AID1779, AID1784, AID2135, AID449727]. Format: functional.
For assay [14], the target named is T6, Runt-related transcription factor 1/Core-binding factor subunit beta (Homo sapiens, UniProt Q01196+Q13951). Briefly: inhibitors of RUNX1 Runt–CBFb-SMMHC binding, biochemical, TR-FRET (AID 1438). Format: protein assay. A general note: TR-FRET usually uses a lanthanide donor and a delayed reading to cut background.
Assay [15] deals with T6, Runt-related transcription factor 1/Core-binding factor subunit beta. Briefly: inhibitors of RUNX1 Runt–CBFb-SMMHC binding, primary screen, biochemical, FRET, Cerulean-Runt, Venus-CBFb-SMMHC, uHTS (AID 1434).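 Also: partner is the CBFb-SMMHC leukemia fusion protein rather than wild-type CBFb.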 Format: protein assay.
Assay [16] addresses T7, Corticotropin-releasing factor receptor 2/Corticotropin-releasing factor-binding protein (Homo sapiens, UniProt P24387+Q13324).
T7 sequence (Q13324 whole entry): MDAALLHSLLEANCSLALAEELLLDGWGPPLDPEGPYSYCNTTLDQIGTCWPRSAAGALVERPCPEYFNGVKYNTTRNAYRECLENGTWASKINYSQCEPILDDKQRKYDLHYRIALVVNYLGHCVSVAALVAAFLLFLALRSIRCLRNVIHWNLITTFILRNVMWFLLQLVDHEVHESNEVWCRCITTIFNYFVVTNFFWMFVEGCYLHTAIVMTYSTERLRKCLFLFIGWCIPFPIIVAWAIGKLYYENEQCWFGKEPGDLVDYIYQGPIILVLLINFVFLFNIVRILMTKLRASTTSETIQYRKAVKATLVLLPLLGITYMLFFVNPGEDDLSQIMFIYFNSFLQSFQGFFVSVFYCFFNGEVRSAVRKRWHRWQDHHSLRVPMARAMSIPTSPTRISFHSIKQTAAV
T7 sequence (P24387 whole entry): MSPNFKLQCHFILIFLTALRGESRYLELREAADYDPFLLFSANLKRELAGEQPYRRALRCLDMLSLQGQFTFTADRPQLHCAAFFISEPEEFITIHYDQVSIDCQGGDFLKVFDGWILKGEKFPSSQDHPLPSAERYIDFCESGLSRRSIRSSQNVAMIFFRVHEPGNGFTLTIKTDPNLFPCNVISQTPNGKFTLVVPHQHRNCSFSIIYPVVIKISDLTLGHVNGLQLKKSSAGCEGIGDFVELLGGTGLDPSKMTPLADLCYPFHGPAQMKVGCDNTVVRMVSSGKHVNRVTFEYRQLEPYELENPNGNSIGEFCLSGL
As to the kind of experiment: activators of CRF receptor 2 with binding protein – uHTS hits, confirmation (AID 602473). Format: functional. Particulars: read-out: EC50_Mean.

Assay [17] can be described thus: cytotoxicity in HEK-293T cells, dose response, cytotoxicity control for TCR NF-kB inhibitor project, luminescence, T-cell screen hits (AID 489026).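 Also: cells exposed to compound about 14 hours before the viability readout.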 Format: functional, cell-based.
Assay [18] deals with T7, Corticotropin-releasing factor receptor 2/Corticotropin-releasing factor-binding protein. As to the kind of experiment: Dose Response confirmation of uHTS hits for small molecule antagonists of the CRF-binding protein and CRF-R2 receptor complex. It is filed as functional. Particulars: read-out: IC50_Mean.
The target in assay [19] is COUP transcription factor 2 (Homo sapiens, UniProt P24468). Briefly: Luminescence-based cell-based high throughput dose response assay to identify inhibitors of COUP-TFII (NR2F2). It is filed as functional.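 Also: HEK293 cells transiently cotransfected with COUP-TFII expression vector and reporter; luciferase reporter luminescence driven by COUP-TFII from the pX2-168 reporter plasmid.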
COUP transcription factor 2, sequence (P24468 whole entry): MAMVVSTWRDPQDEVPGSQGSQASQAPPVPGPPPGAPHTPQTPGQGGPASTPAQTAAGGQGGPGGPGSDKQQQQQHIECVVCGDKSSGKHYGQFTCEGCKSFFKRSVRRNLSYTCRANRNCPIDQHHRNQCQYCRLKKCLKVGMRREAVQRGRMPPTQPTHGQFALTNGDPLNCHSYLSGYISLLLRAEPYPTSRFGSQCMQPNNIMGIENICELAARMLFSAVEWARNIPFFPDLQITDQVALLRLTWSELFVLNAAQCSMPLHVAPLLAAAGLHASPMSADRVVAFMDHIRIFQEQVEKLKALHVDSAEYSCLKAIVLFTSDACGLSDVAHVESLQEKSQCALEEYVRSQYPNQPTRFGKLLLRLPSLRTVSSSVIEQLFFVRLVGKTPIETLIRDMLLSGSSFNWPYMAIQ

T3 sequence (P98170 whole entry): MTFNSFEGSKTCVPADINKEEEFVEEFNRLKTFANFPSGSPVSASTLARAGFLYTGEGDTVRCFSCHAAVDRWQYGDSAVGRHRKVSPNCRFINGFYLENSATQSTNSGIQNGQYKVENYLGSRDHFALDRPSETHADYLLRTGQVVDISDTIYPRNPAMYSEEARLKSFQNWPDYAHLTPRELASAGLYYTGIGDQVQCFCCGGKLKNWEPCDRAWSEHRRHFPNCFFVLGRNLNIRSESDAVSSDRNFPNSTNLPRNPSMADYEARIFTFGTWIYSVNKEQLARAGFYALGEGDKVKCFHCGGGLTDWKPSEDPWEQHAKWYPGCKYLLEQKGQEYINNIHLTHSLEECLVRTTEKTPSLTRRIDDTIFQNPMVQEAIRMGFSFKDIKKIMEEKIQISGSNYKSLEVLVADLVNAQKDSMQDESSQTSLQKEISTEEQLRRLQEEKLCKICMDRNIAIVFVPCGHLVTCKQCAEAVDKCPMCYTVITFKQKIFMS
T6 sequence (Q01196 whole entry, the tested form may be a part): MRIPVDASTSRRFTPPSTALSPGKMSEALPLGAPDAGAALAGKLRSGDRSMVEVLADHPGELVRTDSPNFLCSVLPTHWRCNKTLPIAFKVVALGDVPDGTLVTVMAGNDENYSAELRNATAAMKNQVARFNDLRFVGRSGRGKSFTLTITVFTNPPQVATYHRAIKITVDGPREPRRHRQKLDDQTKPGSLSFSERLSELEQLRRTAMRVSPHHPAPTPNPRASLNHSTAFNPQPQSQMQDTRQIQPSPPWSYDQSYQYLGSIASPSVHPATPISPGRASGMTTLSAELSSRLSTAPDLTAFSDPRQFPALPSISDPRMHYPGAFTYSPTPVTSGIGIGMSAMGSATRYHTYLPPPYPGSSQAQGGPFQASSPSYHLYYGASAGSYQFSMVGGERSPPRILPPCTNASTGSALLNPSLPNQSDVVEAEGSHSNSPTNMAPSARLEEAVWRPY
T6 sequence (Q13951 whole entry, the tested form may be a part): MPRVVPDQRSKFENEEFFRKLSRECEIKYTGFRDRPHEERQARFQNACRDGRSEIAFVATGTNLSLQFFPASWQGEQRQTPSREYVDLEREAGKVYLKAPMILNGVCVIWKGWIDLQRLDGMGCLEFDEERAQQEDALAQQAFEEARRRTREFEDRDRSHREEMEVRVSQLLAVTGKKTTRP
Tyrosine-protein phosphatase non-receptor type 12, sequence (Q05209 whole entry): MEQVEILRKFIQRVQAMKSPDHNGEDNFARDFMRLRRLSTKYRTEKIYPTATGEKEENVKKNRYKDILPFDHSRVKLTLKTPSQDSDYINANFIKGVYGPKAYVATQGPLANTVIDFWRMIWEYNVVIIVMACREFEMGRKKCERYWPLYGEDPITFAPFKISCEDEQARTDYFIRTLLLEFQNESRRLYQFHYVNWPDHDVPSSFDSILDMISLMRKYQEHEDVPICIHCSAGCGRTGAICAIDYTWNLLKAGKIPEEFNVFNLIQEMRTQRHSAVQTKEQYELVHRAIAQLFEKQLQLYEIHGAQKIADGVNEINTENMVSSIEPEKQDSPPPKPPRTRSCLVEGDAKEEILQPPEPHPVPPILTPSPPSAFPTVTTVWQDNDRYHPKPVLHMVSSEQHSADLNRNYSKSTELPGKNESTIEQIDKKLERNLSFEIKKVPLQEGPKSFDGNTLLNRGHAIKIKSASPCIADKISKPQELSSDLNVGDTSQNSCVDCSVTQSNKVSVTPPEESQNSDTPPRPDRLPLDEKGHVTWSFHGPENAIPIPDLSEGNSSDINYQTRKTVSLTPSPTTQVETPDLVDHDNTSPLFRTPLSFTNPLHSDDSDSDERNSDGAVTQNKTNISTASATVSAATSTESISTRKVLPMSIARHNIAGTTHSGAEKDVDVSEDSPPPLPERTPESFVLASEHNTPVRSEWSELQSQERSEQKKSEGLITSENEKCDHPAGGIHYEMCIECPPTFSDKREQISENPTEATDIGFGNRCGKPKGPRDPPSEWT
Large T antigen, sequence (P03070 whole entry): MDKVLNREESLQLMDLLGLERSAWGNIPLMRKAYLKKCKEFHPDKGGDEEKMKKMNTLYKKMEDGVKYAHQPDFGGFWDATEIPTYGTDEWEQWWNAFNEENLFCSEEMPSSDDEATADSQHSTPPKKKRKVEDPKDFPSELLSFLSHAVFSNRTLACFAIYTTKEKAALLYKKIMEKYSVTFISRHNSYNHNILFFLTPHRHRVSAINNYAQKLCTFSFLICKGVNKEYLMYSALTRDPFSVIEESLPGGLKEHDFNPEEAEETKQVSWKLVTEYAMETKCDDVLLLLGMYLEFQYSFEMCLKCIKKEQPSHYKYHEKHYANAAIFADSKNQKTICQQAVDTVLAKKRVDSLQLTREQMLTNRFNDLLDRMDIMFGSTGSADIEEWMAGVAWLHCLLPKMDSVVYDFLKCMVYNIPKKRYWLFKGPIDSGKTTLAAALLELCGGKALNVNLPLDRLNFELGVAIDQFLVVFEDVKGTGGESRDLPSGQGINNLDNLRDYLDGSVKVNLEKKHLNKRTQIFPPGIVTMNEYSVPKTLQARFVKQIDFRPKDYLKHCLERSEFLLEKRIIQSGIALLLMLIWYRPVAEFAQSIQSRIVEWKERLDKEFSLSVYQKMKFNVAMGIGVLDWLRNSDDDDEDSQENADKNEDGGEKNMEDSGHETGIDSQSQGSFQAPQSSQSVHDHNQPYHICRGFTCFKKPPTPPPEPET

On to `C=CCc1cccc2cc(C(=O)Nc3ccc(S(=O)(=O)Nc4nnc(CC)s4)cc3)c(=O)oc12`, for which the IC50 on Large T antigen was 83.2 µM (active); in assay [1] it was 6.18 µM (active); in assay [2], 9.43 µM (active); in assay [3] it was 8.58 µM (active).

As for `COC(=O)c1ccc(C(=O)NC(=S)Nc2nc3c(s2)CCCC3)cc1`, the IC50 in assay [4] was > 100 µM (not active); in assay [5], > 100 µM (inactive).

For `Clc1cc(CSc2ccccc2)nc(-c2ccccc2)n1`, the EC50 with Streptococcus is > 150 µM (not active); at Streptokinase A it was 33.8 µM (active); in assay [7], > 150 µM (not active). Besides, the figures for the IC50 in assay [4], in assay [5] and in [6] were > 100 µM (not active), > 100 µM (inactive) and 14.1 µM (active), respectively.

With `O=C(O)COc1ccc2c(c1)O/C(=C\c1cccs1)C2=O`, the IC50 is > 100 µM (inactive) in assay [8]; > 100 µM (inactive) in [9]; > 100 µM (inactive) in assay [10]; > 100 µM (inactive) in assay [11]; > 100 µM (inactive) in assay [12]; 81.2 µM (active) in assay [13].

Regarding `O=c1c(-c2ccccc2)c(O)c2c(n1-c1ccccc1)CCCC2`, the IC50 in [1], in [2] and in assay [3] was > 79.4 µM (inactive) in each case.

Consider `CCC(=O)Nc1c(S(=O)(=O)c2ccccc2)c2nc3ccccc3nc2n1Cc1ccccc1`, for which the results for the IC50 in assay [14] and in [15] were > 100 µM (inactive) and 4.74 µM (active), respectively.

Consider `Cc1cccn2c(=O)c(/C=C(\C#N)C(=O)NCc3ccco3)c(N3CCCC(C)C3)nc12` (configuration not stated), for which the IC50 in assay [14] and in [15] was > 100 µM (inactive) in each case.

As to `COc1ccc(-c2ccc3oc(-c4ccc(OC)cc4)c(C#CCO)c3c2)cc1`, the EC50 in the assay on Streptococcus is > 150 µM (not active); in assay [16], > 53 µM (inactive); on Streptokinase A, > 150 µM (not active); in assay [7], > 150 µM (not active). Also, the IC50 in assay [17] was > 80 µM (inactive); in [18], > 47.1 µM (inactive); in assay [19], 3.38 µM (active).
